Results published in US5770420A, “Methods and products for the synthesis of oligosaccharide structures on glycoproteins, glycolipids, or as free molecules, and for the isolation of cloned genetic sequences that determine these structures” (The Regents of the University of Michigan, priority 1995, dated 1998).
Like-named read-outs stand apart in the source and are kept apart here. Values belong to the compound of their own block, whether it stands above or below them.

How the values were obtained:
[1] = system: chimera Fuc-TC20: Fuc-TVI (1-98) plus Fuc-TIII (100-160) plus Fuc-TVI (160-359); details: acceptor 0.25-167 mM, 3 mM GDP-[14C]fucose (so in the source), pH 6.2, 37° C.
Experimental: (§1) Extracts for α(1,3)Fuc-T assays were prepared by harvesting COS-7 cells 72 hours after transfection, and solubilizing the cell pellets in 1% Triton X-100 (Kukowska-Latallo, J. F., et al (1990) Genes Devel., vol. 4, 1288-1303; Lowe, J. B., et al (1991) J. Biol. Chem., vol. 266, 17467-17477; Weston, B. W., et al (1992) J. Biol. Chem., vol. 267, 4152-4160; Weston, B. W., et al (1992) J. Biol. Chem. vol. 267, 24575-24584). Cell extract protein contents were determined with a micro BCA protein assay reagent (Pierce). Fucosyltransferase assays were performed in a final volume of 20 μl, and contained 25 mM sodium cacodylate (pH 6.2), 5 mM ATP, 10 mM L-fucose, 20 mM MnCl2 and 3 mM GDP-[^14 C]fucose. Cell extract protein concentration was varied to approximate linear reaction rate conditions (net [14C]-fucose incorporation rate of a less than twenty percent of total input GDP-[^14 C]fucose radioactivity). […] Reactions were incubated at 37° C. for one hour and were terminated by the addition of 20 μl ethanol, followed by dilution with […] water. The total radioactivity in each reaction was determined by subjecting an aliquot to scintillation counting. To assess the amount of radioactive fucose incorporated into product, an additional aliquot was applied to a Dowex 1×2-400 column in the formate form (Sasaki, K., et al (1994) J. Biol. Chem., vol. 269, 14730-14737; Natsuka, S., et al (1994) J. Biol. Chem., vol. 269, 16789-16794; Macher, B. A., et al (1991) Glycobiology, vol. 1, 577-584; Natsuka, S., and Lowe, J. B. (1994) Curr. Opin. Struct. Biol., vol. 4, 683-691). The flow through fraction plus an additional 2 ml of a water column "wash" was collected, pooled and subjected to scintillation counting. Control assays containing no added acceptor substrate were also completed in parallel.

[2] = system: chimera Fuc-TC2: Fuc-TIII (1-160) plus Fuc-TVI (160-359); details: acceptor 0.25-167 mM, 3 mM GDP-[14C]fucose (so in the source), pH 6.2, 37° C.
Experimental: as §1

[3] = system: chimera Fuc-TC18: Fuc-TVI (1-85) plus Fuc-TIII (87-160) plus Fuc-TVI (160-359); details: acceptor 0.25-167 mM, 3 mM GDP-[14C]fucose (so in the source), pH 6.2, 37° C.
Experimental: as §1

[4] = system: chimera Fuc-TC19: Fuc-TIII (1-99) plus Fuc-TVI (99-159) plus Fuc-TIII (161-361); details: acceptor 0.25-167 mM, 3 mM GDP-[14C]fucose (so in the source), pH 6.2, 37° C.
Experimental: as §1

[5] = target: human Fuc-TVI (α(1,3)fucosyltransferase), wild type, SEQ ID NO:14 (Homo sapiens, UniProt P51993); details: read-out: Apparent Km LNB-I; acceptor 0.25-167 mM, 3 mM GDP-[14C]fucose (so in the source), pH 6.2, 37° C.
Experimental: as §1

[6] = system: chimera Fuc-TC4: Fuc-TVI (1-159) plus Fuc-TIII (161-361); details: acceptor 0.25-167 mM, 3 mM GDP-[14C]fucose (so in the source), pH 6.2, 37° C.
Experimental: as §1

[7] = target: IgG-Sepharose; assay: batch binding of conditioned medium to IgG-Sepharose, enzyme activity assayed
[8] = target: IgG-Sepharose; assay: batch binding of conditioned medium to IgG-Sepharose, washed matrix assayed for enzyme activity

percent of released activity retained [7]: 100%
Compound: protein A-Fuc-TV fusion protein encoded by pPROTA-Fuc-TVc (from UniProt P02976) (enzyme)

percent of activity recovered from the matrix after exhaustive washing [8]: 24% | percent of released activity retained [7]: 100%
Compound: protein A-fucosyltransferase fusion protein encoded by pPROTA-α(1,3/1,4)FTc (from UniProt P02976) (enzyme)

Second part, the compound before the results:

Compound: CC(=O)N[C@H]1C(O)O[C@H](CO)[C@@H](O)[C@@H]1O[C@@H]1O[C@H](CO)[C@H](O)[C@H](O)[C@H]1O (stereo partly shown) [LNB-I, lacto-N-biose I]
Km ([1]; read-out: Apparent Km LNB-I): > 50 mM | Km ([2]; read-out: Apparent Km LNB-I): > 50 mM | Km ([3]; read-out: Apparent Km LNB-I): > 50 mM | Km ([4]; read-out: Apparent Km LNB-I): > 50 mM | Km [5]: > 50 mM | Km ([6]; read-out: Apparent Km LNB-I): > 50 mM

Compound: CC(=O)N[C@H]1C(O)O[C@H](CO)[C@@H](O[C@@H]2O[C@H](CO)[C@H](O)[C@H](O)[C@H]2O)[C@@H]1O (stereo partly shown) [LacNAc, N-acetyllactosamine]
Km ([1]; read-out: Apparent Km LacNAc): > 50 mM | Km ([2]; read-out: Apparent Km LacNAc): > 50 mM | Km ([3]; read-out: Apparent Km LacNAc): > 50 mM | Km ([4]; read-out: Apparent Km LacNAc): 1.1 mM | Km ([6]; read-out: Apparent Km LacNAc): 5.8 mM

Compound: protein A-Fuc-TIV fusion protein encoded by pPROTA-α(Fuc-TIV)c (from UniProt P02976) (enzyme)
percent of released activity retained [7]: 100%

Compound: protein A-α(1,2)fucosyltransferase fusion protein encoded by pPROTA-α(1,2)FTc (from UniProt P02976) (enzyme)
percent of released activity retained [7]: 100%
